Data taken from ChEMBL document CHEMBL1201862, “PubChem BioAssay data set” (2004).
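Results reflect a 48-hour exposure of cells in 96-well plates to compound at five concentrations. At the GI50, growth is halved.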 Calls of active or inactive are those of the source. Rule as the data show it: active = GI50 up to about 1.1 µM and inactive = higher.

Tests used:
Assay in all cases: NCI tumour cell line growth inhibition, 48 h
786-0 = test system: 786-0
A498 = test system: A498
A549 = test system: A549
BT-549 = test system: BT-549
COLO 205 = test system: COLO 205
EKVX = test system: EKVX
HCT-116 = test system: HCT-116
K562 = test system: K562
LOX IMVI = test system: LOX IMVI
MDA-N = test system: MDA-N
MOLT-4 = test system: MOLT-4
NCI-H23 = test system: NCI-H23
OVCAR-5 = test system: OVCAR-5
OVCAR-8 = test system: OVCAR-8
RPMI-8226 = test system: RPMI-8226
SF-295 = test system: SF-295
SK-OV-3 = test system: SK-OV-3
SN12C = test system: SN12C
SNB-75 = test system: SNB-75
UACC-257 = test system: UACC-257

Row | Structure (SMILES) | GI50 (786-0) | GI50 (A498) | GI50 (A549) | GI50 (BT-549) | GI50 (COLO 205) | GI50 (EKVX) | GI50 (HCT-116) | GI50 (K562) | GI50 (LOX IMVI) | GI50 (MDA-N) | GI50 (MOLT-4) | GI50 (NCI-H23) | GI50 (OVCAR-5) | GI50 (OVCAR-8) | GI50 (RPMI-8226) | GI50 (SF-295) | GI50 (SK-OV-3) | GI50 (SN12C) | GI50 (SNB-75) | GI50 (UACC-257)
1 | Clc1nc(Cl)c(CBr)c(Cl)n1 | 2.24 µM (inactive) | 18.1 µM (inactive) | 16 µM (inactive) | 2.17 µM (inactive) | 7.01 µM (inactive) | 22.1 µM (inactive) | 2.48 µM (inactive) | 2 µM (inactive) | 1.83 µM (inactive) | 3.25 µM (inactive) | 1.45 µM (inactive) | 14.6 µM (inactive) | 3.22 µM (inactive) | 3.27 µM (inactive) | 0.867 µM (active) | 6.11 µM (inactive) | 15.2 µM (inactive) | 2.63 µM (inactive) | 8.83 µM (inactive) | 15 µM (inactive)
2 | Nc1nc(Cl)c(N)c(NCC2(CO)CCC(CCc3ccccc3)C2)n1 (stereo not given) | 20.4 µM (inactive) | 14.6 µM (inactive) | 11.8 µM (inactive) | 11.1 µM (inactive) | 9.93 µM (inactive) | 3.15 µM (inactive) | 12.2 µM (inactive) | 0.183 µM (active) | 11.5 µM (inactive) | 15.2 µM (inactive) | 0.759 µM (active) | 0.0435 µM (active) | 20.9 µM (inactive) | 14 µM (inactive) | 14.3 µM (inactive) | 10.6 µM (inactive) | 22.3 µM (inactive) | 22.8 µM (inactive) | 25.4 µM (inactive) | 0.461 µM (active)
3 | O=C(O)C1[C@@H](C(=O)O)C1(Br)CBr (stereo not given in full) | > 100 µM (inactive) | > 100 µM (inactive) | > 100 µM (inactive) | > 100 µM (inactive) | > 100 µM (inactive) | > 100 µM (inactive) | > 100 µM (inactive) | > 100 µM (inactive) | > 100 µM (inactive) | > 100 µM (inactive) | > 100 µM (inactive) | > 100 µM (inactive) | > 100 µM (inactive) | > 100 µM (inactive) | > 100 µM (inactive) | > 100 µM (inactive) | > 100 µM (inactive) | > 100 µM (inactive) | > 100 µM (inactive) | > 100 µM (inactive)
4 | O=[N+]([O-])C(C(Cl)=C(Cl)Cl)=C(n1nnc2ccccc21)n1nnc2ccccc21 | 13.2 µM (inactive) | > 57.9 µM (inactive) | 48.5 µM (inactive) | > 51.1 µM (inactive) | 19.5 µM (inactive) | > 59.3 µM (inactive) | 20.5 µM (inactive) | 11.5 µM (inactive) | 24.4 µM (inactive) | 23.9 µM (inactive) | 9.33 µM (inactive) | 37.6 µM (inactive) | 47.1 µM (inactive) | 21.5 µM (inactive) | 24.8 µM (inactive) | > 56 µM (inactive) | > 43.6 µM (inactive) | 22.6 µM (inactive) | > 44.3 µM (inactive) | 48.9 µM (inactive)
5 | Cc1ccc2c(c1)C(=O)/C(=C1/CCc3ccc(C)cc31)C2 | 46 µM (inactive) | > 100 µM (inactive) | > 100 µM (inactive) | > 100 µM (inactive) | 57.9 µM (inactive) | > 100 µM (inactive) | 59 µM (inactive) | 76 µM (inactive) | > 100 µM (inactive) | > 100 µM (inactive) | > 100 µM (inactive) | > 100 µM (inactive) | > 100 µM (inactive) | 48.6 µM (inactive) | > 100 µM (inactive) | > 100 µM (inactive) | > 100 µM (inactive) | > 100 µM (inactive) | 13.9 µM (inactive) | > 100 µM (inactive)
6 | CC(=O)OCC1OC(O[C@H]2C=C[C@@H](C(=O)OCc3ccccc3)n3c(=O)n(-c4ccccc4)c(=O)n32)C(OC(C)=O)C(OC(C)=O)C1OC(C)=O (stereo not given in full) | 1.6 µM (inactive) | 2.55 µM (inactive) | 17.2 µM (inactive) | 1.8 µM (inactive) | 2 µM (inactive) | 1.95 µM (inactive) | 2.22 µM (inactive) | 1.63 µM (inactive) | 1.2 µM (inactive) | 2.77 µM (inactive) | 2.09 µM (inactive) | 2.96 µM (inactive) | 2.23 µM (inactive) | 2.48 µM (inactive) | 0.879 µM (active) | 10.6 µM (inactive) | 18.7 µM (inactive) | 1.94 µM (inactive) | 10.9 µM (inactive) | 1.92 µM (inactive)
7 | COc1ccccc1C1C2=C(COC2=O)Oc2cc3c(cc21)OCO3 (stereo not given) | 3.18 µM (inactive) | 2.23 µM (inactive) | 3.87 µM (inactive) | 66.2 µM (inactive) | 1.78 µM (inactive) | 2.29 µM (inactive) | 1.87 µM (inactive) | 0.706 µM (active) | 2.27 µM (inactive) | 0.245 µM (active) | 1.59 µM (inactive) | 3.22 µM (inactive) | 11 µM (inactive) | 3.39 µM (inactive) | 3.27 µM (inactive) | 2.17 µM (inactive) | 3.46 µM (inactive) | 3.82 µM (inactive) | 3.51 µM (inactive) | 21.1 µM (inactive)
8 | COc1c(CC=C(C)C)c(O)c(C(CC(C)C)c2c(O)c(CC=C(C)C)c(O)c(C(C)=O)c2O)c(O)c1C(C)=O (stereo not given) | 1.63 µM (inactive) | 0.0843 µM (active) | 1.8 µM (inactive) | 1.62 µM (inactive) | 0.564 µM (active) | 1.04 µM (active) | 0.325 µM (active) | 0.29 µM (active) | 1.57 µM (inactive) | 2.16 µM (inactive) | 0.644 µM (active) | 0.275 µM (active) | 4.9 µM (inactive) | 0.385 µM (active) | 0.419 µM (active) | 0.521 µM (active) | 2.08 µM (inactive) | 0.469 µM (active) | 1.69 µM (inactive) | 1.45 µM (inactive)
9 | COc1cc(/C=C/c2ccccn2)cc(OC)c1OC | > 10 µM (inactive) | > 10 µM (inactive) | > 10 µM (inactive) | > 10 µM (inactive) | > 10 µM (inactive) | > 10 µM (inactive) | > 10 µM (inactive) | > 10 µM (inactive) | > 10 µM (inactive) | > 10 µM (inactive) | > 10 µM (inactive) | > 10 µM (inactive) | > 10 µM (inactive) | > 10 µM (inactive) | > 10 µM (inactive) | > 10 µM (inactive) | > 10 µM (inactive) | > 10 µM (inactive) | 7.78 µM (inactive) | > 10 µM (inactive)
10 | CCOC(=O)[C@H](O)[C@@H](O)C(=O)NCc1ccc(C(=O)c2ccccc2)cc1 | > 100 µM (inactive) | > 100 µM (inactive) | > 100 µM (inactive) | > 100 µM (inactive) | > 100 µM (inactive) | > 100 µM (inactive) | > 100 µM (inactive) | > 100 µM (inactive) | > 100 µM (inactive) | > 100 µM (inactive) | > 100 µM (inactive) | > 100 µM (inactive) | > 100 µM (inactive) | > 100 µM (inactive) | > 100 µM (inactive) | > 100 µM (inactive) | > 100 µM (inactive) | > 100 µM (inactive) | > 100 µM (inactive) | > 100 µM (inactive)
